{
  "source": "patent US12458624B2",
  "about": "“Deuterium-enriched substituted phenoxyphenyl acetic acids and acylsulfonamides” (priority 2019, dated 2025)",
  "key": {"rat prostate": {"tested_on": "rat prostate", "assay": "In situ rat prostate, ET-1 induced contraction", "format": "in vivo, Sprague-Dawley rats", "details": "ET-1 0.3 nmoles/kg intra-arterial; antagonist IA five minutes before third ET-1 injection", "experimental": "Male Sprague-Dawley rats weighing 300-400 grams are anesthetized with urethane (1.75 g/kg, ip), a tracheal cannula is inserted, and the femoral artery is cannulated. Core body temperature is maintained at 37° C. A 4-5 cm midline abdominal incision is made to expose the bladder and prostate. The prostate is separated from the bladder and surrounding capsule by blunt dissection with a forcep. A length of surgical silk is gently secured around the anterior tips of the prostate lobes. A second length of surgical silk attached to an atraumatic needle is passed through and tied to the base of the prostate approximately 10-12 mm posterior to the first tie. The posterior ligature is secured to an anchor post whereas the anterior ligature is connected to a Grass FT03 transducer and maintained at a tension of 1 g. Signals from the transducer are amplified and recorded on a polygraph (Hewlett-Packard 8805B amplifiers and 7758 recorder, Palo Alto, CA). After equilibrating for over 15 min, the rats are administered pretreatment drugs (atropine 1 mg/kg, (+) propranolol 1 mg/kg) 10 min apart through the intra-arterial (IA) cannula. […] The response of the prostate to ET-1 is quantified by measuring the change from baseline tension to the peak of the response during the five-minute period after the third ET-1 injection. […]"}, "male mongrel dogs": {"tested_on": "male mongrel dogs", "assay": "Endothelin-1-induced changes in diastolic and urethral pressures in the anesthetized male dog", "format": "in vivo", "experimental": "Methodology for Determining Whether an ET-1 Receptor Selective Antagonist could Inhibit the ET-1 Mediated Prostatic Urethral Contractions in a Mongrel Dog Model:\nOn separate days, two fasted male mongrel dogs (from commercial suppliers) weighing 11.0 and 12.4 kilograms (kg), are anesthetized with sodium pentobarbital at 35 mg/kg (i.v.) to effect, followed by 4 mg/kg/hr (i.v.) infusion. A cuffed endotracheal tube is inserted and each animal is ventilated with room air using a positive displacement large animal ventilator at a rate of 18 breaths/minute and an average tidal volume of 18 mL/kg body weight. Body temperature is maintained with a heating pad and heat lamp using a temperature controller and esophageal probe. Two catheters are placed in the aorta via the femoral arteries (one in each artery) for administration of endothelin or phenylephrine and for continuous direct monitoring of blood pressure and heart rate using a Statham blood pressure transducer (Spectramed) and a computer system (Modukar Instruments, Inc.). Two other catheters are placed in the vena cava via the femoral veins (one catheters in each vein) for administration of pentobarbital and N-(4-isopropyl (d7)-benzenesulfonyl)-α-(4-carboxy-2-n-propylphenoxy)-3,4-methylenedioxyphenylacetamide dipotassium salt.\nA supra-pubic incision approximately one-half inch lateral to the penis is made to expose the ureters, urinary bladder, prostate, and urethra. The dome of the bladder is retracted to facilitate dissection of the ureters. The ureters are cannulated with PE 90 and tied off to the bladder. Umbilical tape is passed beneath the urethra at the bladder neck and another piece of tape is placed approximately 1-2 cm distal to the prostate. The bladder is incised and a Micro-tip catheter transducer is advanced into the urethra. The neck of the bladder is ligated with the umbilical tape to hold the transducer. The bladder incision is sutured with 3-0 silk (purse string suture). The transducer is withdrawn until it is positioned in the prostatic urethra. The position of the Micro-tip catheter is verified by gently squeezing the prostate and noting the large change in urethral pressure prior to ligating the distal urethra.\nPhenylephrine (10 μg/kg, intra-arterial) is administered and pressor effects on diastolic blood pressure (DBP) and intra-urethral pressure (IUP) is noted. When blood pressure returned to baseline, endothelin-1 (1 nmole/kg, intra-arterial) is administered. Changes in DBP and IUP are monitored for one hour and an ET-1 selective endothelin antagonist, such as the deuterated compound, N-(4-isopropyl(d7)benzenesulfonyl)-α-(4-carboxy-2-n-propylphenoxy)-3,4-methylenedioxyphenyl-acetamide dipotassium salt (30 mg/kg, intra-venous), is administered. […] Phenylephrine is administered at the end of experiment to verify specificity for ET-1 blockade. The dogs are euthanized with an overdose of pentobarbital followed by saturated KCl.\nThe drugs utilized in the experiment described above are: • (1) Phenylephrine, HCl (PE) (Sigma Chemical Co.) is given at a volume of 0.05 mL/kg; • (2) Endothelin-1 (ET-1) (Human, Porcine, Canine, rat, Mouse, Bovine) is given at a volume of 0.05 mL/kg; • (3) ET-1 selective antagonist, such as the deuterated compound N-(4-isopropyl(d7)benzenesulfonyl)-α-(4-carboxy-2-n-propyl-[…]phenoxy)-3,4-methylenedioxyphenyl-acetamide dipotassium salt, is given at a volume of 0.3 mL/kg. • All drugs are dissolved in isotonic saline solution."}, "[1]": {"tested_on": "canine model of renovascular hypertension", "details": "J. Hypertens. 1998, 16, 835-841; cited from earlier work"}, "[2]": {"details": "30 mg/kg i.v., ET-1 1 nmole/kg intra-arterial challenge ten to 15 minutes after administration"}, "[3]": {"details": "PE 10 μg/kg intra-arterial after antagonist 30 mg/kg i.v., one dog"}, "[4]": {"details": "ET-1 1 nmole/kg intra-arterial, before antagonist, average"}},
  "data": [
    {"smiles": "[2H]C([2H])([2H])C([2H])(c1ccc(S(=O)(=O)NC(=O)C(Oc2ccc(C(=O)[O-])cc2CCC)c2ccc3c(c2)OCO3)cc1)C([2H])([2H])[2H].[2H]C([2H])([2H])C([2H])(c1ccc(S(=O)(=O)NC(=O)C(Oc2ccc(C(=O)[O-])cc2CCC)c2ccc3c(c2)OCO3)cc1)C([2H])([2H])[2H].[K+].[K+]", "note": "(stereo not drawn) [N-(4-isopropyl(d7)benzenesulfonyl)-α-(4-carboxy-2-n-propylphenoxy)-3,4-methylenedioxyphenylacetamide Dipotassium Salt]", "values": [
      {"measurement": "effect on ET-1 contraction of the prostate", "setting": "rat prostate", "value": "specific inhibition"},
      {"measurement": "inhibition of ET-1 depressor effect on DBP", "setting": "male mongrel dogs; [2]", "value": 70, "unit": "%"},
      {"measurement": "inhibition of ET-1 pressor effect on DBP", "setting": "male mongrel dogs; [2]", "value": 75, "unit": "%"},
      {"measurement": "inhibition of ET-1 pressor effect on IUP", "setting": "male mongrel dogs; [2]", "value": 94, "unit": "%"},
      {"measurement": "inhibition of phenylephrine-induced increase in DBP", "setting": "male mongrel dogs; [3]", "value": 33, "unit": "%"},
      {"measurement": "inhibition of phenylephrine-induced increase in IUP", "setting": "male mongrel dogs; [3]", "value": 11, "unit": "%"},
      {"measurement": "hemodynamic and prostatic urethral responses to ET-1", "setting": "male mongrel dogs; anesthetized dogs", "value": "specifically inhibited"},
      {"measurement": "change of intra-arterial phenylephrine-induced increases in DBP and IUP after administration", "setting": "male mongrel dogs; one dog, specificity check", "value": "did not change significantly"}
    ]},
    {"smiles": "CC[C@H](C)[C@H](NC(=O)[C@H](CC(=O)O)NC(=O)[C@H](CC(C)C)NC(=O)[C@H](Cc1c[nH]cn1)NC(=O)[C@@H]1CSSC[C@H](N)C(=O)N[C@@H](CO)C(=O)N[C@H]2CSSC[C@H](NC(=O)[C@H](CCC(=O)O)NC(=O)[C@H](CCCCN)NC(=O)[C@H](CC(=O)O)NC(=O)[C@H](CCSC)NC(=O)[C@H](CC(C)C)NC(=O)[C@H](CO)NC(=O)[C@H](CO)NC2=O)C(=O)N[C@@H](C(C)C)C(=O)N[C@@H](Cc2ccc(O)cc2)C(=O)N[C@@H](Cc2ccccc2)C(=O)N1)C(=O)N[C@H](C(=O)N[C@@H](Cc1c[nH]c2ccccc12)C(=O)O)[C@@H](C)CC", "note": "[ET-1, reference compound]", "values": [
      {"measurement": "increase in IUP", "setting": "male mongrel dogs; [4]", "value": 15, "unit": "mmHg"},
      {"measurement": "peak pressor effect on DBP", "setting": "male mongrel dogs; [4]", "value": 25, "unit": "mmHg"},
      {"measurement": "decrease in DBP (initial depressor effect)", "setting": "male mongrel dogs; ET-1 1 nmole/kg intra-arterial, before antagonist, average of both dogs", "value": 15, "unit": "mmHg"}
    ]},
    {"smiles": "CCCCc1nc(Cl)c(CO)n1Cc1ccc(-c2ccccc2-c2nn[nH]n2)cc1", "note": "[Losartan]", "values": [
      {"measurement": "reduction in mean arterial blood pressure", "setting": "[1]", "value": 20, "unit": "mmHg"}
    ]}
  ]
}
